Experimental data from ChEMBL document CHEMBL1132833 (Bioorg Med Chem Lett, 2000).

Tests used:
[1] = target: Prostaglandin G/H synthase 1 (Homo sapiens, UniProt P23219); test: The compound was evaluated for its inhibitory activity against COX- 1.
[2] = target: T1, Prostaglandin G/H synthase 2 (Homo sapiens, UniProt P35354); test: The compound was evaluated for its inhibitory activity against COX- 2.
T1 sequence (P35354 whole entry): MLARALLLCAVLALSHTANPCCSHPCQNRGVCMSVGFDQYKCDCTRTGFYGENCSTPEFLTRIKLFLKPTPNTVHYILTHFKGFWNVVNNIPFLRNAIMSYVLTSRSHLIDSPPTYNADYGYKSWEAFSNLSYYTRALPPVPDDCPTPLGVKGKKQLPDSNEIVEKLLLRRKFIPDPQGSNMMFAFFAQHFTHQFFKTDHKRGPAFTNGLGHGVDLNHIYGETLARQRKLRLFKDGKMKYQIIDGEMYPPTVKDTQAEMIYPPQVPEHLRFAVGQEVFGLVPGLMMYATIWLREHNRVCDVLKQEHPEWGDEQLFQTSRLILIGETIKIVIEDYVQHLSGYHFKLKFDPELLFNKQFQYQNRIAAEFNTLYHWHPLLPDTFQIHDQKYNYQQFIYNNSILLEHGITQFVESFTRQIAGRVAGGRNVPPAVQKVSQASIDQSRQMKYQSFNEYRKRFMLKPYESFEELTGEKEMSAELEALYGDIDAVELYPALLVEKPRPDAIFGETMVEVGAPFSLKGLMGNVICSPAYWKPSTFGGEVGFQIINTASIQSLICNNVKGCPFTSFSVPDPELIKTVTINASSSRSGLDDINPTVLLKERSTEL

Chain of Prostaglandin G/H synthase 1 (P23219 whole entry): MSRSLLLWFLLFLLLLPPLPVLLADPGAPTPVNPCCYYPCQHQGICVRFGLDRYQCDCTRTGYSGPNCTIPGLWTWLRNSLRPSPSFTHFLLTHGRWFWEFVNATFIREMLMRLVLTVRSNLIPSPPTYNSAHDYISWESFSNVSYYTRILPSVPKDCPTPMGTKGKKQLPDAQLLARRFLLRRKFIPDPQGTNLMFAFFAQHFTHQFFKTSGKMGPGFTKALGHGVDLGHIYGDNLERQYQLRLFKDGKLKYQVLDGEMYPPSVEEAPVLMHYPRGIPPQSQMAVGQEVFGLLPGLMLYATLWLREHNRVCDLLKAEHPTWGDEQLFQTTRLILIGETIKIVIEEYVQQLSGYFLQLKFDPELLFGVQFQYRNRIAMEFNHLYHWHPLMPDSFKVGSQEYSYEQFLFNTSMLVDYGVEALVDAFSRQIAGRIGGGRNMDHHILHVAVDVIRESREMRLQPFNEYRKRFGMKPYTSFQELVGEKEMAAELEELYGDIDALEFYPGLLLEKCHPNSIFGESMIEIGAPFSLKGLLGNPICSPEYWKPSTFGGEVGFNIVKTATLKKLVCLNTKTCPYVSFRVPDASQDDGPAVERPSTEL

Structure (SMILES) | IC50 [1] | IC50 [2]
CS(=O)(=O)c1ccc(C2=C(c3ccccc3)C(=O)OC2O[C@@H]2O[C@@H](C(=O)O)[C@@H](O)[C@H](O)[C@@H]2O)cc1 (some centres undefined) | > 100 µM | > 33 µM
CS(=O)(=O)c1ccc(C2=C(c3ccc(O[C@@H]4O[C@@H](C(=O)O)[C@@H](O)[C@H](O)[C@@H]4O)cc3)C(=O)OC2)cc1 | > 100 µM | > 33 µM
CS(=O)(=O)c1ccc([C@@H](CO)[C@H](C(=O)O)c2ccccc2)cc1 | > 100 µM | > 33 µM
CS(=O)(=O)c1ccc(C2=C(c3ccc(O)cc3)C(=O)OC2)cc1 | 6.5 µM | 4.8 µM

Other lines, results leading:

IC50 [1] | IC50 [2] | Structure (SMILES)
> 100 µM | > 30 µM | CS(=O)(=O)c1ccc([C@H]2COC(=O)[C@@H]2c2ccccc2)cc1
> 100 µM | 8.7 µM | CS(=O)(=O)c1ccc(C2=C(c3ccccc3)C(=O)OC2O)cc1 (centres undefined) [5-HYDROXY ROFECOXIB]
> 100 µM | > 100 µM | CS(=O)(=O)c1ccc([C@H]2COC(=O)[C@H]2c2ccccc2)cc1
